Positions count from the first letter of the chain named.
Legend:
Assay type in all cases: biochemical
[1] = target: T1, mutant LCAT protein Y156N (Homo sapiens, UniProt P04180, Y180N); test: Measurement of LCAT activity using LCAT mutant protein Y156N (FLD), reconstituted HDL with [14C]-cholesterol; details: for Measured value of LCAT activity Mean ± standard error (n = 6): 37° C. 1 hour, radioactivity of cholesterol ester
T1 construct: made in house; host or cells: HEK293 cells (culture supernatant)
T1 sequence (P04180 25-440 Y180N): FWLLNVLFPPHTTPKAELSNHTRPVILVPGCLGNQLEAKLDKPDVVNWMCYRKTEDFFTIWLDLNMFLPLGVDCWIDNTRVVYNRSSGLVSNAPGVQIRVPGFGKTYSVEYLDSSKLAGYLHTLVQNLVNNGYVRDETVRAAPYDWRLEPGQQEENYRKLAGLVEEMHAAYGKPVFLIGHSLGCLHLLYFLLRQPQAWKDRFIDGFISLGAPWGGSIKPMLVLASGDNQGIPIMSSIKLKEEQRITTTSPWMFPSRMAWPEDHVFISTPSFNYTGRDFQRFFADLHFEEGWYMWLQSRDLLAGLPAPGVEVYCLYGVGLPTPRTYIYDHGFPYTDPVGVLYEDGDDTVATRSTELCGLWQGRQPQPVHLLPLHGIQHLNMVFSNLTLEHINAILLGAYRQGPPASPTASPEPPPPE
Procedure: (§1) Mutant LCAT proteins, reported on gene mutations among patients with familial LCAT deficiency (FLD) and patients with fish eye disease (FED), were expressed in HEK293 cells, and the mutant LCAT proteins were purified from the culture supernatant and used as enzyme sources. HDL was reconstituted with phosphatidylcholine, [14C]-labelled cholesterol, and apolipoprotein A-I and used as a reactive substrate. The test compound was prepared by being dissolved in dimethyl sulfoxide. To a mixture of 7 μL of the mutant LCAT protein solution (concentration 0.034 μg/μL), 1 μL each of PBS containing 10% bovine serum albumin or mercaptoethanol, and 40 μL of the above-mentioned reconstituted HDL was further added 1 μL of the test compound (final concentration 1 or 10 μM) to prepare 50 μL of a mixture in total. The mixture was incubated at 37° C. for 1 hour and subsequently a mixed solution of hexane and isopropanol (mixing ratio=3:2) was added to stop the reaction. Water was added and stirred, and subsequently the hexane layer was collected and concentrated to dryness. A chloroform solution (concentration 10 mg/mL) was added thereto, spotted on a silica gel thin-layer plate and developed with a mixed solution of hexane, diethyl ether and ethyl acetate (mixing ratio=85:15:2). Radioactivity of a portion corresponding to the cholesterol ester separated on each lane by the development on the silica gel thin-layer plate was measured using an imaging analyzer BAS-2500 (manufactured by FUJIFILM Corporation). Radioactivities with and without the test compound were compared to calculate the ratio of LCAT activity with the addition of the test compound to that without the addition of the test compound for each of the mutant proteins. Additionally, the presence and absence of significant differences in both cases were statistically evaluated using t-test or Dunnett multiple comparison test.

[2] = target: T2, mutant LCAT protein N228K (Homo sapiens, UniProt P04180, N252K); test: Measurement of LCAT activity using LCAT mutant protein N228K (FLD), reconstituted HDL with [14C]-cholesterol; details: for Measured value of LCAT activity Mean ± standard error (n = 6): 37° C. 1 hour, radioactivity of cholesterol ester
T2 construct: made in house; host or cells: HEK293 cells (culture supernatant)
T2 sequence (P04180 25-440 N252K): T1 sequence (P04180 25-440 Y180N) with N156Y, N228K
Procedure: as §1

mutant LCAT protein P10Q = target: T3, mutant LCAT protein P10Q (Homo sapiens, UniProt P04180, P34Q); test: Measurement of LCAT activity using LCAT mutant protein P10Q (FED), reconstituted HDL with [14C]-cholesterol; details: compound concentration 1 μM
T3 construct: made in house; host or cells: HEK293 cells (culture supernatant)
T3 sequence (P04180 25-440 P34Q): T1 sequence (P04180 25-440 Y180N) with P10Q, N156Y
Procedure: as §1, with “Water was added and stirred, and subsequently the hexane layer was collected and concentrated to dryness. A chloroform solution (concentration 10 mg/mL) was added thereto, spotted on a silica gel thin-layer plate and developed with a mixed solution of hexane, diethyl ether and ethyl acetate (mixing ratio=85:15:2).” left out, “Radioactivities with and without the test compound were compared to calculate the ratio of LCAT activity with the addition of the test compound to that without the addition of the test compound for each of the mutant proteins.” left out

[3] = target: T4, mutant LCAT protein T1231 (Homo sapiens, UniProt P04180, T147I); test: Measurement of LCAT activity using LCAT mutant protein T1231 (FED), reconstituted HDL with [14C]-cholesterol; details: compound concentration 1 μM
T4 construct: made in house; host or cells: HEK293 cells (culture supernatant)
T4 sequence (P04180 25-440 T147I): T1 sequence (P04180 25-440 Y180N) with T123I, N156Y
Procedure: as §1, with “Water was added and stirred, and subsequently the hexane layer was collected and concentrated to dryness. A chloroform solution (concentration 10 mg/mL) was added thereto, spotted on a silica gel thin-layer plate and developed with a mixed solution of hexane, diethyl ether and ethyl acetate (mixing ratio=85:15:2).” left out, “Radioactivities with and without the test compound were compared to calculate the ratio of LCAT activity with the addition of the test compound to that without the addition of the test compound for each of the mutant proteins.” left out

[4] = target: T5, mutant LCAT protein N131D (Homo sapiens, UniProt P04180, N155D); test: Measurement of LCAT activity using LCAT mutant protein N131D (FED), reconstituted HDL with [14C]-cholesterol; details: compound concentration 1 μM
T5 construct: made in house; host or cells: HEK293 cells (culture supernatant)
T5 sequence (P04180 25-440 N155D): T1 sequence (P04180 25-440 Y180N) with N131D, N156Y
Procedure: as §1, with “Water was added and stirred, and subsequently the hexane layer was collected and concentrated to dryness. A chloroform solution (concentration 10 mg/mL) was added thereto, spotted on a silica gel thin-layer plate and developed with a mixed solution of hexane, diethyl ether and ethyl acetate (mixing ratio=85:15:2).” left out, “Radioactivities with and without the test compound were compared to calculate the ratio of LCAT activity with the addition of the test compound to that without the addition of the test compound for each of the mutant proteins.” left out

[5] = 37° C. 1 hour, radioactivity of cholesterol ester

- LCAT activity ratio of case of compound addition to no-addition control ([1]; compound concentration 1 μM): 1.83
- Measured value of LCAT activity Mean ± standard error (n = 6) ([1]; compound concentration 1 μM): 447.36 ± 47.06
- LCAT activity ratio of case of compound addition to no-addition control ([1]; compound concentration 10 μM): 1.82
- Measured value of LCAT activity Mean ± standard error (n = 6) ([1]; compound concentration 10 μM): 443.20 ± 36.83
- LCAT activity ratio of case of compound addition to no-addition control ([2]; compound concentration 1 μM): 2.80
- Measured value of LCAT activity Mean ± standard error (n = 6) ([2]; compound concentration 1 μM): 634.17 ± 66.62
- LCAT activity ratio of case of compound addition to no-addition control ([2]; compound concentration 10 μM): 2.76
- Measured value of LCAT activity Mean ± standard error (n = 6) ([2]; compound concentration 10 μM): 625.22 ± 41.03
- LCAT activity ratio of case of compound addition to no-addition control (mutant LCAT protein P10Q): 3.83
- Measured value of LCAT activity Mean ± standard error (n = 6) (mutant LCAT protein P10Q; [5]): 2908.25 ± 429.42
- LCAT activity ratio of case of compound addition to no-addition control [3]: 3.75
- Measured value of LCAT activity Mean ± standard error (n = 6) [3, 5]: 3263.11 ± 521.27
- LCAT activity ratio of case of compound addition to no-addition control [4]: 3.19
- Measured value of LCAT activity Mean ± standard error (n = 6) [4, 5]: 1308.38 ± 259.22
SMILES: O=C1Nc2[nH]nc(C3CCN(c4cnc(C(F)(F)F)nc4)CC3)c2[C@@H](C(F)(F)F)[C@H]1O [test compound, (+)-Cis-5-hydroxy-4-(trifluoromethyl)-3-{1-[2-(trifluoromethyl)pyrimidin-5-yl]piperidin-4-yl}-1,4,5,7-tetrahydro-6H-pyrazolo[3,4-b]pyridin-6-one]
